How the values were obtained:
hENPP1-ECD-His = hENPP1-ECD-His (Homo sapiens (Human), UniProt P22413); experiment: ENPP1 inhibitory activity, substrate 2',3'-cGAMP detection (AMP-Glo); conditions: read-out: c-GAMP (IC50, nM), inhibitory effect on ENPP1
Procedure: The ENPP1 inhibitory activity of the compound of the present disclosure was tested in substrate 2′,3′-cGAMP detection.
Experimental objective: based on the established experimental method, the inhibitory IC50 value of the compound in the present application on ENPP1 was detected using 2′,3′-cGAMP as the substrate.
2. Preparation of compound concentration gradient: the tested compound was dissolved in DMSO (dimethyl sulfoxide) to an initial concentration of 10 μM, diluted at 3 times, with 10 concentrations, single well or multi-well testing was set. […] The compound was diluted by gradient in a 384 well plate to a solution with the final concentration of 1000 times, and then 5 nL of the solution was transferred to a 384 well reaction plate for testing using Echo550.5 nL of 100% DMSO was transferred from the smallest well and the largest well.
6. The reaction solution was centrifuged at 1000 rpm for 1 minute and incubated at room temperature for 15 minutes.
7. 2.5 μL 2× substrate solution was added to each well of the reaction plate, centrifuged at 1000 rpm for 1 minute, and incubated at room temperature for 60 minutes.
8. 5 μL of R1 solution (from AMP-Glo™ Kit) was added to each well of the reaction plate, centrifuged at 1000 rpm for 1 minute and incubated at room temperature for 120 minutes.
9. 10 μL of R2 solution (from AMP-Glo™ Kit) was added to each well of the reaction plate, centrifuged at 1000 rpm for 1 minute and incubated at room temperature for 30 minutes.
The inhibition rate is calculated using the following formula: • inhibition rate %=(maximum signal−compound signal)/(maximum signal−minimum signal)×100 • wherein the “minimum signal” represents the mean value of the negative control well, and the “maximum signal” represents the mean value of the positive control well.
Using the log value of concentration as the X-axis and the percentage inhibition rate as the Y-axis, the dose-response curve was fitted using the log(inhibitor) vs. response-variable slope of analysis software GraphPadPrism5 to obtain the inhibitory IC50 value of the compound of the present disclosure on enzyme activity.

[1] = Pharmacokinetic test experiment of mice; assay type: in vivo, ICR mice; conditions: after oral administration
Procedure: 1. In each administration mode, 9 healthy ICR mice male, weighing 30-35 g, were randomly divided into 3 groups (M1, M2, M3) with 3 mice in each group. […] Feeding uniformly 4 hours after administration.

[2] = Pharmacokinetic test experiment for rats; assay type: in vivo, SD rats; conditions: p.o. prodrug compound 7 (5 mg/kg) vs i.v. compound 1 (1 mg/kg)
Procedure: 1. Six SD rats of 6-8 weeks old, male, were taken in each administration mode, and the tested compound was administered by gavage (5 mg/kg) and intravenous injection (1 mg/kg), respectively: fasting for 12 hours before the experiment and drinking water freely. Feeding uniformly 4 hours after administration.
(§1) Plasma collection and processing: at the above set time points, 150-200 μL of blood was collected via the plexus jugularis or a suitable part, placed in EDTA-K2 test tube, centrifuged at 3500 rpm for 10 min, plasma was separated, and frozen at −20° C. in a refrigerator.
LC/MS/MS method was used to determine the concentration of compounds in rats plasma. The pharmacokinetic parameters after administration were calculated using a non-compartmental model using Phoenix 8.3 software (Pharsight, USA).

[3] = Pharmacokinetic test experiment for dogs; conditions: beagle dogs, p.o. prodrug compound 7 (2 mg/kg) vs i.v. compound 1 (1 mg/kg)
Procedure: Feeding uniformly 4 hours after administration.
as §1, with “Blood was collected continuously, with 3 animals collected at each time point. Plasma” for “Plasma”, “1,000” for “150-200”
LC/MS/MS method was used to determine the concentration of compounds in the beagle dogs plasma. The pharmacokinetic parameters after administration were calculated using a non-compartmental model using Phoenix 8.3 software (Pharsight, USA).

[4] = mice, reported by the literature; cited from earlier work

Chain of hENPP1-ECD-His (P22413 98-925): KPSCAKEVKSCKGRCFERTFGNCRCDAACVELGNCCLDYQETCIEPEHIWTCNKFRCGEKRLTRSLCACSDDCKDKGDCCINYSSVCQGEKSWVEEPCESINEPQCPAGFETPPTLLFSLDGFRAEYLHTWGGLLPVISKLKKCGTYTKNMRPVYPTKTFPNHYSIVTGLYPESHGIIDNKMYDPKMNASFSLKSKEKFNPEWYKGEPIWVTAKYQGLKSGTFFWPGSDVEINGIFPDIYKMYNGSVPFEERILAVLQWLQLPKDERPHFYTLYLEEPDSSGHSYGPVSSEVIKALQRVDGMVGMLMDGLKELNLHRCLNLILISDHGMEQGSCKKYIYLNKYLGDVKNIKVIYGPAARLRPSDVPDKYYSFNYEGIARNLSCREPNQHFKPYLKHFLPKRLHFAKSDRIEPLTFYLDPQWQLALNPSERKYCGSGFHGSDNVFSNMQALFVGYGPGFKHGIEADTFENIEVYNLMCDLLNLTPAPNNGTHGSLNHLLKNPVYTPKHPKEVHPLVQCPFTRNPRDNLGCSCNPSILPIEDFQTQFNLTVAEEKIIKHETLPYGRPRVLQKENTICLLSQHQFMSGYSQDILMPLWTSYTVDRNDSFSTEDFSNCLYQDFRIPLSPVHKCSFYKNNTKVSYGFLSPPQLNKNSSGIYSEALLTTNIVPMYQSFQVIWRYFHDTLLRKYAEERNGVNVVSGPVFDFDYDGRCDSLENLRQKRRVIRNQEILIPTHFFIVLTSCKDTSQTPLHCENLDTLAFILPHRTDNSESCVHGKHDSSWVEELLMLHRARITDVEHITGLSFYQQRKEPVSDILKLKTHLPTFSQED

Structure (SMILES)	IC50 (hENPP1-ECD-His) [nM]	also measured
COc1ccc2c(Oc3cc(F)c(CP(=O)(O)O)c(F)c3)ccnc2n1 [Compound 5]	11	
COc1ccc2c(Oc3cc(F)c(CP(=O)(O)O)cc3F)ccnc2n1 [Compound 6]	11	
COc1ccc2c(Oc3ccc(CP(=O)(OCOC(=O)C(C)(C)C)OCOC(=O)C(C)(C)C)cc3)ccnc2n1 [Compound 7]		time of conversion of prodrug to parent drug compound 1 in mice plasma [1]: ≤ 5 min; Bioavailability Oral BA (% F) [2]: 40 % F; Bioavailability Oral BA (% F) [3]: 21 % F
COc1ccc2c(Oc3ccc(CP(=O)(OCOC(=O)OC(C)C)OCOC(=O)OC(C)C)cc3)ccnc2n1 [Compound 8]		time of conversion of prodrug to parent drug compound 1 in mice plasma [1]: ≤ 5 min
COc1ccc2c(Oc3ccc(CCP(=O)(O)O)cc3)ccnc2n1 [Compound 23]	37	
COc1cccc2c(N3CCC(CCP(=O)(O)O)CC3)ncnc12 [STF32, reference compound]	6.2	half-life of injection administration T1/2 [4]: 14 min

The next lines start with results.

IC50 (hENPP1-ECD-His) [nM]	Structure (SMILES)	also measured
18	COc1ccc2c(Oc3c(F)cc(CP(=O)(O)O)cc3F)ccnc2n1 [Compound 3]	
0.94	COc1ccc2c(Nc3ccc(CP(=O)(O)O)cc3)ncnc2n1 [Compound 13]	
2.1	COc1ccc2c(Nc3ccc(CP(=O)(O)O)nc3)ccnc2n1 [Compound 20]	
5	COc1ccc2c(Nc3ccc(CP(=O)(O)O)cn3)ccnc2n1 [Compound 21]	
63	COc1cc2ncnc(Nc3ccc(CP(=O)(O)O)cc3)c2cc1OC [STF22, reference compound]	

From US20250099494A1, “PHOSPHONIC ACID COMPOUND AND PRODRUG THEREOF, AND PREPARATION METHODS FOR AND USES OF PHOSPHONIC ACID COMPOUND AND PRODRUG THEREOF” (HAIHE BIOPHARMA CO., LTD., priority 2022, published 2025)
